In PMC10487517, “Impacts of Halogen Substitutions on Bisphenol A Compounds Interaction with Human Serum Albumin: Exploring from Spectroscopic Techniques and Computer Simulations” (International Journal of Molecular Sciences, 2023):

Columns and labels:
[1] = molecular target: T1, HSA (Homo sapiens, UniProt P02768); settings: level of the Ka value; cited from earlier work
T1 construct: HSA and Tris were obtained from Sigma-Aldrich, St. Louis, MI, USA; purchased Sigma-Aldrich

[2] = molecular target: T1, HSA; assay: Fluorescence quenching / fluorescence–thermodynamic experiment with HSA; assay type: binding; settings: for Ksv: Stern–Volmer quenching constant, Tris-HCl pH 7.4; for Kd: Ka, binding constant, double logarithmic equation; for ∆H: enthalpy change of binding; for ∆H / ∆S: from Ka at 298, 303, 310 K; for ∆S: entropy change of binding; for fluorescence quenching mechanism: from Kq and trend of Ksv with temperature; for main binding forces: from signs of ΔH and ΔS
Experimental: Prior to taking steady-state fluorescence measurements, the HSA and ligand mixture solution was given 2 min to equilibrate.
To account for the ligand concentration in the study system, which was much lower than the 10^−5 M level, the inner-filter effect of the ligand was neglected. The Stern–Volmer equation and double logarithmic equation (Equations (1)–(3)) were used to analyze the data of fluorescence spectra. Thermodynamic parameters were obtained using Equation (4) to determine the driving forces in the binding process. […] In addition, R and T are the gas constant at room temperature and the temperature in Kelvin, respectively.

[3] = molecular target: T1, HSA; assay: Site-specific competitive experiment (fluorescence) with site markers; assay type: binding; settings: for Kd: Ka, room temperature, n = 3; for primary binding site on HSA: site-marker competition
Experimental: The site-specific competitive experiment was conducted following the methodology described in the literature, using […], ibuprofen, and phenylbutazone as site-specific probes. First, a 1:1 complex of the site-specific probe with HSA was prepared in the buffer solution. […] This experiment was conducted under the same test conditions as the thermodynamic experiment, except at room temperature.

[4] = molecular target: T1, HSA; assay: as above; assay type: binding; settings: Ka, with Digoxigenin, [Ligands]/[Site Marker] 1:1; room temperature; n = 3
[5] = molecular target: T1, HSA; assay: Three-dimensional fluorescence spectra of HSA with ligand; settings: [HSA] = [ligand] = 1.0 × 10^−6 M; for Peak 1 ∆λ: free HSA 62; for Peak 2 ∆λ: free HSA 109; for Peak 2 λex/λem: free HSA 225/334; for Peak 1 λex/λem: free HSA 279/341; for Peak 1 F: free HSA 368.7; for Peak 2 F: free HSA 801.7; for change of Stokes shift of peak 2: versus free HSA
[6] = molecular target: T1, HSA; assay: Circular dichroism spectroscopy, HSA secondary structure (CONTINLL); settings: [HSA] = [ligand] = 1.0 × 10^−6 M; for β-Sheet: free HSA 7.7; for β-Turn: free HSA 14.1; for Random Coil: free HSA 26.9; for α-Helix: free HSA 51.4
From the text: The concentration of HSA and the ligands was set as 1.0 × 10^−6 M. The instrumental parameters were set as follows: path length of 1 mm and scanning speed of 100 nm min^−1.

[7] = 298 K, quenching rate constant, Kq=Ksv/τ0, τ0 6.30 ns
[8] = 303 K, quenching rate constant, Kq=Ksv/τ0, τ0 6.30 ns
[9] = 310 K, quenching rate constant, Kq=Ksv/τ0, τ0 6.30 ns
[10] = compared with maximum scattering collision quenching rate constant for dynamic quenching
[11] = Control group, [Ligands]/[Site Marker] 1:0
[12] = with Ibuprofen, [Ligands]/[Site Marker] 1:1
[13] = with Phenylbutazone, [Ligands]/[Site Marker] 1:1

T1 sequence (P02768 25-609): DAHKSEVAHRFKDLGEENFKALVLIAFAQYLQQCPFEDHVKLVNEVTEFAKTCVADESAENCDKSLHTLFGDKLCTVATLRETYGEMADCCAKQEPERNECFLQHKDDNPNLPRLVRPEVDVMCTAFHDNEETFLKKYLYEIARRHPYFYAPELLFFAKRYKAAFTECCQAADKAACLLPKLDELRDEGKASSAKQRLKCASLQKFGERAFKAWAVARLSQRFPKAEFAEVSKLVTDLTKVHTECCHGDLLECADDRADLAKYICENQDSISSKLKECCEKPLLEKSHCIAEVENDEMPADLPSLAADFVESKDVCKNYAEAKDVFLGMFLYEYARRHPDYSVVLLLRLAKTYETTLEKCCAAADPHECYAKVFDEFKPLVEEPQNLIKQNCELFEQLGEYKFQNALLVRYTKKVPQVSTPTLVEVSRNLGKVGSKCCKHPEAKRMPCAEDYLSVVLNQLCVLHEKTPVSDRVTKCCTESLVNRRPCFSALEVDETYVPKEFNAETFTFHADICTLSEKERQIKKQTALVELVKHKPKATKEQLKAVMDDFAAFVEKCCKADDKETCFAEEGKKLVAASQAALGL

Row | SMILES | ∆G ([2]; 298 K) [kJ/mol] | Kq [2, 7] | ∆G ([2]; 303 K) [kJ/mol] | Ksv ([2]; 303 K) | Kq [2, 8] | ∆G ([2]; 310 K) [kJ/mol] | Ksv ([2]; 310 K) | Kq [2, 9] | Kd ([2]; 298 K) [µM] | Kd ([2]; 303 K) [µM] | Kd ([2]; 310 K) [µM] | Kq [2, 10] | ∆H [2] [kJ/mol] | ∆S [2] [J·moL^−1·K^−1] | fluorescence quenching mechanism [2] | main binding forces [2] | Kd [3, 11] [nM] | Kd [3, 12] [nM] | Kd [3, 13] [nM] | primary binding site on HSA [3] | further results
1 | CC(C)(c1ccc(O)cc1)c1ccc(O)cc1 [BPA, Bisphenol A] | – | – | – | – | – | – | – | – | – | – | – | – | – | – | – | – | – | – | – | – | Ka [1]: ~1000 M⁻¹
2 | CC(C)(c1cc(Br)c(O)c(Br)c1)c1cc(Br)c(O)c(Br)c1 [TBBPA, tetrabromobisphenol A] | -33.08 | 1.210 10^14 M^−1·s^−1 | -33.95 | 7.534 10^5 M^−1 | 1.211 10^14 M^−1·s^−1 | -35.18 | 7.627 10^5 M^−1 | 1.226 10^14 M^−1·s^−1 | 1.6 | 1.39 | 1.18 | greater than 2.0 × 10^10 M^−1·s^−1 | 19.19 | 175.4 | static quenching mechanism | hydrophobic interactions | 734 | 740 | 1230 | site I | Kd [4]: 743 nM; Peak 1 ∆λ [5]: 59 nm; Peak 2 ∆λ [5]: 103 nm; Peak 2 λex/λem [5]: 225/328; Peak 1 λex/λem [5]: 279/338; Peak 1 F [5]: 254.0; Peak 2 F [5]: 575.5; change of Stokes shift of peak 2 [5]: 6 nm; β-Sheet [6]: 7.3%; β-Turn [6]: 14.7%; Random Coil [6]: 29.8%; α-Helix [6]: 48.2%
3 | CC(C)(c1cc(Cl)c(O)c(Cl)c1)c1cc(Cl)c(O)c(Cl)c1 [TCBPA, tetrachlorobisphenol A] | -30.07 | 0.2135 10^14 M^−1·s^−1 | -29.64 | 1.296 10^5 M^−1 | 0.2083 10^14 M^−1·s^−1 | -29.05 | 1.289 10^5 M^−1 | 0.2073 10^14 M^−1·s^−1 | 4.9 | 9.08 | 11.9 | greater than 2.0 × 10^10 M^−1·s^−1 | -55.35 | −84.86 | mixed quenching mechanism | hydrogen bonds and van der Waals forces | 1370 | 1320 | 3130 | site I | Kd [4]: 1280 nM; Peak 1 ∆λ [5]: 61 nm; Peak 2 ∆λ [5]: 108 nm; Peak 2 λex/λem [5]: 226/334; Peak 1 λex/λem [5]: 279/340; Peak 1 F [5]: 323.4; Peak 2 F [5]: 692.6; change of Stokes shift of peak 2 [5]: 1 nm; β-Sheet [6]: 8.2%; β-Turn [6]: 14.2%; Random Coil [6]: 27.2%; α-Helix [6]: 50.4%
